# In PubChem BioAssay AID2060889 (Molecular Pharmacology Branch, DTP, NCI, 2025):
# System: LG0567-F671-PDC complex spheroids viability
# Experiment: Anticancer human tumor LG0567-F671-PDC patient-derived lung adenocarcinoma cell line growth inhibition [RAS]
# Details: for IC50: curve of first compound; for viability, T/C: stronger effect = lower value
# Outline: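 Agents were tested in combination matrices in half-log decrements from a top concentration at or near clinical Cmax (10 microM if undetermined). Targets were multi-cell spheroids of tumour lines plus HUVEC and MSC stromal cells.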
# [1] = second compound 0.00316 µM, first compound 0.0316 µM
# [2] = second compound 0.00316 µM, first compound 0.1 µM
# [3] = second compound 0.00316 µM, first compound 0.316 µM
# [4] = second compound 0.00316 µM, first compound 1 µM
# [5] = second compound 0.00316 µM, first compound 3.16 µM
# [6] = second compound 0.00316 µM, first compound 10 µM
# [7] = second compound 0.01 µM, first compound 0.0316 µM
# [8] = second compound 0.01 µM, first compound 0.1 µM
# [9] = second compound 0.01 µM, first compound 0.316 µM
# [10] = second compound 0.01 µM, first compound 1 µM
# [11] = second compound 0.01 µM, first compound 3.16 µM
# [12] = second compound 0.01 µM, first compound 10 µM
# [13] = second compound 0.0316 µM, first compound 0.0316 µM
# [14] = second compound 0.0316 µM, first compound 0.1 µM
# [15] = second compound 0.0316 µM, first compound 0.316 µM
# [16] = second compound 0.0316 µM, first compound 1 µM
# [17] = second compound 0.0316 µM, first compound 3.16 µM
# [18] = second compound 0.0316 µM, first compound 10 µM
# [19] = second compound 0.1 µM, first compound 0.0316 µM
# [20] = second compound 0.1 µM, first compound 0.1 µM
# [21] = second compound 0.1 µM, first compound 0.316 µM
# [22] = second compound 0.1 µM, first compound 1 µM
# [23] = second compound 0.1 µM, first compound 3.16 µM
# [24] = second compound 0.1 µM, first compound 10 µM
# [25] = second compound 0.316 µM, first compound 0.0316 µM
# [26] = second compound 0.316 µM, first compound 0.1 µM
# [27] = second compound 0.316 µM, first compound 0.316 µM
# [28] = second compound 0.316 µM, first compound 1 µM
# [29] = second compound 0.316 µM, first compound 3.16 µM
# [30] = second compound 0.316 µM, first compound 10 µM
# [31] = second compound 1 µM, first compound 0.0316 µM
# [32] = second compound 1 µM, first compound 0.1 µM
# [33] = second compound 1 µM, first compound 0.316 µM
# [34] = second compound 1 µM, first compound 1 µM
# [35] = second compound 1 µM, first compound 3.16 µM
# [36] = second compound 1 µM, first compound 10 µM
# 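Further: spheroids exposed to compound for seven days before readout.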
# 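Wherever IC50 is given: luminescence signal used as a proxy for viable cells.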
smiles,measurement,setting,value
CC(C)NCC(C(=O)N1CCN(c2ncnc3c2C(C)CC3O)CC1)c1ccc(Cl)cc1 (stereo unspecified) + C=CC(=O)N1CCN(c2nc(OCC3CCCN3C)nc3c(F)c(-c4nc(N)cc(C)c4C(F)(F)F)c(Cl)cc23)C(C)C1,IC50,second compound 0.00316 µM,< 31.6 nM
same,IC50,second compound 0.01 µM,< 31.6 nM
same,IC50,second compound 0.0316 µM,< 31.6 nM
same,IC50,second compound 0.1 µM,< 31.6 nM
same,IC50,second compound 0.316 µM,< 31.6 nM
same,IC50,second compound 1 µM,< 31.6 nM
same,"viability, T/C",[1],16.6%
same,"viability, T/C",[2],18.9%
same,"viability, T/C",[3],14.9%
same,"viability, T/C",[4],10.8%
same,"viability, T/C",[5],10.3%
same,"viability, T/C",[6],9%
same,"viability, T/C",[7],17%
same,"viability, T/C",[8],11.4%
same,"viability, T/C",[9],10.8%
same,"viability, T/C",[10],9.98%
same,"viability, T/C",[11],8.68%
same,"viability, T/C",[12],8.55%
same,"viability, T/C",[13],13.8%
same,"viability, T/C",[14],13.7%
same,"viability, T/C",[15],10.3%
same,"viability, T/C",[16],8.15%
same,"viability, T/C",[17],7.81%
same,"viability, T/C",[18],7.64%
same,"viability, T/C",[19],12.6%
same,"viability, T/C",[20],13.6%
same,"viability, T/C",[21],11.4%
same,"viability, T/C",[22],8.66%
same,"viability, T/C",[23],8.46%
same,"viability, T/C",[24],7.32%
same,"viability, T/C",[25],14.9%
same,"viability, T/C",[26],11.9%
same,"viability, T/C",[27],11.5%
same,"viability, T/C",[28],9.81%
same,"viability, T/C",[29],9.16%
same,"viability, T/C",[30],7.21%
same,"viability, T/C",[31],15.6%
same,"viability, T/C",[32],11.9%
same,"viability, T/C",[33],12.7%
same,"viability, T/C",[34],9.59%
same,"viability, T/C",[35],10%
same,"viability, T/C",[36],9.16%
CC(C)n1nc(-c2ccc3oc(N)nc3c2)c2c(N)ncnc21 + C=CC(=O)N1CCN(c2nc(OCC3CCCN3C)nc3c(F)c(-c4nc(N)cc(C)c4C(F)(F)F)c(Cl)cc23)C(C)C1,IC50,second compound 0.00316 µM,< 0.316 nM
same,IC50,second compound 0.01 µM,< 0.316 nM
same,IC50,second compound 0.0316 µM,< 0.316 nM
same,IC50,second compound 0.1 µM,< 0.316 nM
same,IC50,second compound 0.316 µM,< 0.316 nM
same,IC50,second compound 1 µM,< 0.316 nM
same,"viability, T/C","second compound 0.00316 µM, first compound 0.000316 µM",13.7%
same,"viability, T/C","second compound 0.00316 µM, first compound 0.001 µM",17.2%
same,"viability, T/C","second compound 0.00316 µM, first compound 0.00316 µM",11.4%
same,"viability, T/C","second compound 0.00316 µM, first compound 0.01 µM",9.86%
same,"viability, T/C",[1],7.75%
same,"viability, T/C",[2],6.24%
same,"viability, T/C","second compound 0.01 µM, first compound 0.000316 µM",12.6%
same,"viability, T/C","second compound 0.01 µM, first compound 0.001 µM",10.8%
same,"viability, T/C","second compound 0.01 µM, first compound 0.00316 µM",10.5%
same,"viability, T/C","second compound 0.01 µM, first compound 0.01 µM",7.96%
same,"viability, T/C",[7],7.27%
same,"viability, T/C",[8],4.67%
same,"viability, T/C","second compound 0.0316 µM, first compound 0.000316 µM",12.2%
same,"viability, T/C","second compound 0.0316 µM, first compound 0.001 µM",11.5%
same,"viability, T/C","second compound 0.0316 µM, first compound 0.00316 µM",9.25%
same,"viability, T/C","second compound 0.0316 µM, first compound 0.01 µM",10.8%
same,"viability, T/C",[13],6.75%
same,"viability, T/C",[14],4.77%
same,"viability, T/C","second compound 0.1 µM, first compound 0.000316 µM",11.1%
same,"viability, T/C","second compound 0.1 µM, first compound 0.001 µM",10.7%
same,"viability, T/C","second compound 0.1 µM, first compound 0.00316 µM",10.9%
same,"viability, T/C","second compound 0.1 µM, first compound 0.01 µM",8.59%
same,"viability, T/C",[19],7.47%
same,"viability, T/C",[20],4.81%
same,"viability, T/C","second compound 0.316 µM, first compound 0.000316 µM",11.6%
same,"viability, T/C","second compound 0.316 µM, first compound 0.001 µM",10.8%
same,"viability, T/C","second compound 0.316 µM, first compound 0.00316 µM",9.88%
same,"viability, T/C","second compound 0.316 µM, first compound 0.01 µM",7.87%
same,"viability, T/C",[25],6.07%
same,"viability, T/C",[26],4.55%
same,"viability, T/C","second compound 1 µM, first compound 0.000316 µM",14.2%
same,"viability, T/C","second compound 1 µM, first compound 0.001 µM",11.4%
same,"viability, T/C","second compound 1 µM, first compound 0.00316 µM",14.3%
same,"viability, T/C","second compound 1 µM, first compound 0.01 µM",10.9%
same,"viability, T/C",[31],7.1%
same,"viability, T/C",[32],5.83%
CC(Nc1ccc2c(c1)OCCn1cc(N3C(=O)OCC3C(F)F)nc1-2)C(N)=O (stereo unspecified) + C=CC(=O)N1CCN(c2nc(OCC3CCCN3C)nc3c(F)c(-c4nc(N)cc(C)c4C(F)(F)F)c(Cl)cc23)C(C)C1,IC50,second compound 0.00316 µM,< 31.6 nM
same,IC50,second compound 0.01 µM,< 31.6 nM
same,IC50,second compound 0.0316 µM,< 31.6 nM
same,IC50,second compound 0.1 µM,< 31.6 nM
same,IC50,second compound 0.316 µM,< 31.6 nM
same,IC50,second compound 1 µM,< 31.6 nM
same,"viability, T/C",[1],15.2%
same,"viability, T/C",[2],10.8%
same,"viability, T/C",[3],10.1%
same,"viability, T/C",[4],7.83%
same,"viability, T/C",[5],7.01%
same,"viability, T/C",[6],5.88%
same,"viability, T/C",[7],12%
same,"viability, T/C",[8],8.85%
same,"viability, T/C",[9],8.39%
same,"viability, T/C",[10],5.85%
same,"viability, T/C",[11],5.99%
same,"viability, T/C",[12],4.79%
same,"viability, T/C",[13],10.2%
same,"viability, T/C",[14],9.26%
same,"viability, T/C",[15],7.97%
same,"viability, T/C",[16],5.73%
same,"viability, T/C",[17],5.76%
same,"viability, T/C",[18],4.64%
same,"viability, T/C",[19],13%
same,"viability, T/C",[20],8.09%
same,"viability, T/C",[21],6.28%
same,"viability, T/C",[22],5.63%
same,"viability, T/C",[23],5.99%
same,"viability, T/C",[24],4.82%
same,"viability, T/C",[25],10.5%
same,"viability, T/C",[26],8.03%
same,"viability, T/C",[27],7.03%
same,"viability, T/C",[28],5.34%
same,"viability, T/C",[29],6.43%
same,"viability, T/C",[30],5.3%
same,"viability, T/C",[31],11.4%
same,"viability, T/C",[32],9.66%
same,"viability, T/C",[33],6.71%
same,"viability, T/C",[34],6.57%
same,"viability, T/C",[35],7.01%
same,"viability, T/C",[36],5.23%
